Measured values from patent US9139548B2, “Polycyclic derivatives, preparation process and pharmaceutical use thereof” (Jiangsu Hengrui Medicine Co., Ltd., priority 2012, dated 2015).

Columns and labels:
[1] = target: T1, GPR40 (Homo sapiens, UniProt O14842); test: Agonist activity on CHO-K1/GPR40 cell (Fluo-4 calcium fluorescence); assay type: cell-based; conditions: CHO-K1 cell line expressing GPR40, calcium ion fluorescence
T1 construct: host or cells: CHO-K1 (Cell bank of the Chinese Academy of Sciences, GNHa 7), retrovirus infection
T1 sequence (O14842 whole entry): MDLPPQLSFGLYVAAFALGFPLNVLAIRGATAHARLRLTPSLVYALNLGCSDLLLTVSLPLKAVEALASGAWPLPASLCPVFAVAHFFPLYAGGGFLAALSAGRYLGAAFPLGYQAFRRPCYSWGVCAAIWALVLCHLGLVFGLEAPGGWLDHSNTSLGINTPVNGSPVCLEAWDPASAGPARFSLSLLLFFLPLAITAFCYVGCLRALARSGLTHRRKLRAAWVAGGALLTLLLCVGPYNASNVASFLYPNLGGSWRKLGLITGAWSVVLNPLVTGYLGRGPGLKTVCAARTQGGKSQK
From the text: Agonist activity of compounds of the present disclosure on CHO-K1/GPR40 cell.
The following method was used to determine the agonist activity of compounds of the present disclosure on GPR40. The experiment process is described as follows:
CHO-K1/GPR40 cell (CHO-K1 cell line expressing GPR40, which was constructed using retrovirus infection method, CHO-K1/GPR40 cell for short, wherein CHO-K1 cell was purchased from Cell bank of the Chinese Academy of Sciences, catalogue number GNHa 7; GPR40 cDNA was purchased from Guangzhou FulenGen Co., Ltd, catalogue number EX-UO270-MO2) was inoculated in a 96-well plate with an inoculation density of 25000 cells/well. The cell plate was incubated at 37° C. and 5% CO2 for 24 hours. The cell culture fluid was discarded during the experiment, the cells were washed with buffer solution (1×HBSS+20 mM HEPES pH 7.4) once, 100 μL of Fluo-4 calcium ion dye was quickly added into each well, incubated at 37° C. in the dark for 30 minutes, and then at room temperature for another 30 minutes. During the determination, the baseline value of each well was read at first, and then different concentrations of drug were added to the wells (50 μL/well), and the fluorescence values were then read. The fluorescence excitation wavelength was 494 nm and the emission wavelength was 516 nm. The increase of fluorescence intensity was proportional to calcium ion level in the cells. Cell response rate of each cell/(The maximum fluorescence value−The minimum fluorescence value)/The minimum fluorescence value. EC50 values of the compounds were calculated

[2] = system: ICR mice fed on a high fat diet; test: Oral glucose tolerance test (OGTT) in glucose load mice fed on a high fat diet; assay type: in vivo; conditions: blood glucose AUC, high fat diet ICR male mice, single oral dose 40 mg/kg
Experimental: ICR mice fed on a high fat diet were used as test animals. The effect of oral administration of a single dose of the compounds of the present disclosure on oral glucose tolerance test (OGTT) of glucose load mice was studied.
Compounds of Example 1, Example 2, Example 13, Example 16, Example 18, Example 19 and Example 26
Healthy ICR male mice were purchased from SINO-BRITSH SIPPR/BK LAB. ANIMAL LTD., CO, License number: SCXK (Shanghai) 2008-0016
The test compounds were added to aqueous 0.5% CMC-Na solution to prepare the corresponding concentration suspension using microwave.
After an overnight fast for 16 hours, male mice fed on a high fat diet were weighed, and the basic blood glucose was determined. The mice were randomly divided into a Blank group and the group of each test compound of the present disclosure according to the level of blood glucose.
The dosage of administration was 20 mg/kg or 40 mg/kg, and the Blank group was administered aqueous 0.5 CMC-Na solution.
20% Glucose solution was administered 15 minutes after intragastrical administration (each mouse was administered 0.4 mL)
The compounds were administered according to the aforesaid dosage to determine the blood glucose value (−15 minutes).
At 15 minutes after administration, 20% glucose solution was administrated at a dose of 2 g/kg and the blood glucose values at 0, 15, 30, 45, 60 and 120 minutes in each mouse were determined by Roche Accu-Chek blood glucose monitoring meter.
Using Excel statistical software: the average value was calculated with avg; SD value was calculated with STDEV; and P value of difference among groups was calculated with TTEST. • AUC calculation formula: AUC=(t15min+t0min)×0.25/2+(t30min+t15min)×0.25/2+(t45min+t30min)×0.25/2+(t60min+t45min)×0.25/2+(t120min+t60min)×1/2 • Wherein t0min, t15min, t30min, t45min, t60min, t120min were blood glucose values determined at different time points.

[3] = Pharmacokinetics assay in rats after intragastric administration; assay type: in vivo; conditions: for Vd/F / AUC / CL/F / half-life / MRT / Cmax: both sexes, SD, rat, plasma, po, 5 mg/kg; for Vd/F: read-out: Apparent Distribution Volume Vz/F; for AUC: read-out: Area under Curve AUC; for CL/F: read-out: Clearance CL/F (converted); for half-life: read-out: Half-Life t½ (converted); for MRT: read-out: Mean Residence Time MRT; for Cmax: read-out: Plasma Conc. Cmax
Experimental: The compounds of the present invention were administered intragastrically to determine the drug concentration in plasma at different time points. The pharmacokinetic behavior of the compounds of the present invention was studied and evaluated in rats.
Compounds of Example 1, Example 2, Example 13 and Example 30
16 healthy adult SD rats were divided into 4 groups with 4 in each group, half male and half female. Rats were purchased from SINO-BRITSH SIPPR/BK LAB. ANIMAL LTD., CO, License number: SCXK (Shanghai) 2008-0016
The appropriate amount of test compounds were weighed and added to 0.5% sodium carboxymethyl cellulose to prepare a 0.5 mg/mL suspension using microwave.
After an overnight fast, the rats were administered intragastrically a dose of 5.0 mg/kg, at an administration volume of 10 mL/kg. Blood samples were taken before administration and after administration at different time points over 24.0 hours, using heparin as an anticoagulant. The separated plasma samples were stored at −20° C. The rats were fed 2 hours after administration.
Blood samples (0.1 mL) were taken before administration and at 1.0, 2.0, 3.0, 4.0, 6.0, 8.0, 11.0, 24.0 and 48.0 hours after administration, which were stored in heparinized tubes and centrifuged for 5 minutes at 3,500 rpm to separate blood plasma. The plasma samples were stored at −20° C. The rats were fed 2 hours after administration.
The content of the different test compounds in rat plasma samples after the intragastric administration was determined by LC/MS/MS method. The linearity of the method is 1.00˜2000 ng/ml. The blood sample was analyzed after protein precipitation was accomplished by the addition of methanol.

| EC50 [1] [nM] | Area under Curve AUC ([3]; SD rats, 5 mg/Kg) [ng·h/mL] | Clearance CL/F ([3]; SD rats, 5 mg/Kg) [L/h/kg] | Half-Life t½ ([3]; SD rats, 5 mg/Kg) [h] | Mean Residence Time MRT ([3]; SD rats, 5 mg/Kg) [h] | Plasma Conc. Cmax ([3]; SD rats, 5 mg/Kg) [ng/mL] | Vd/F [3] [L/kg] | AUC [3] [ng·h/mL] | CL/F [3] [mL/min/kg] | half-life [3] [min] | MRT [3] [h] | Cmax [3] [ng/mL] | Structure (SMILES) | AUC decrease rate % ([2]; 40 mg/kg) [%] | AUC decrease rate % [2] [%] |
| --- | --- | --- | --- | --- | --- | --- | --- | --- | --- | --- | --- | --- | --- | --- |
| 16 | 39357 ± 10659 | 0.13 ± 0.03 | 10.0 ± 0.3 | 12.5 ± 1.5 | 3153 ± 482 | – | – | – | – | – | – | Cc1cc(O[C@@H]2COC[C@H]2O)cc(C)c1-c1cccc(COc2ccc3c(c2)OC[C@H]3CC(=O)O)c1 (mixture of isomers) [Example 13, 2-((S)-6-((4′-(((3R,4R)/(3S,4S)-4-Hydroxytetrahydrofuran-3-yl)oxy)-2′,6′-dimethylbiphenyl-3-yl)methoxy)-2,3-dihydrobenzofuran-3-yl)acetic acid] | 39.71 | – |
| 31 | – | – | – | – | – | 3.39 ± 1.24 | 21600 ± 8620 | 4 | 606 ± 198 | 14.5 ± 4.7 | 1690 ± 698 | Cc1cc(O[C@H]2CCOC2)cc(C)c1-c1cccc(COc2ccc3c(c2)OC[C@H]3CC(=O)O)c1 [Example 1, 2-((S)-6-((2′,6′-Dimethyl-4′-(((S)-tetrahydrofuran-3-yl)oxy)biphenyl-3-yl)methoxy)-2,3-dihydrobenzofuran-3-yl)acetic acid] | – | 36.08 |
| 35 | – | – | – | – | – | 2.79 ± 0.79 | 32900 ± 11900 | 2.5 | 804 ± 228 | 18.9 ± 6 | 2010 ± 511 | Cc1cc(O[C@@H]2CCOC2)cc(C)c1-c1cccc(COc2ccc3c(c2)OC[C@H]3CC(=O)O)c1 [Example 2, 2-((S)-6-((2′,6′-Dimethyl-4′-(((R)-tetrahydrofuran-3-yl)oxy)biphenyl-3-yl)methoxy)-2,3-dihydrobenzofuran-3-yl)acetic acid] | – | 29.49 |
| 34 | – | – | – | – | – | 1.88 ± 0.66 | 38200 ± 15000 | 2.33 | 561 ± 33 | 13.3 ± 2 | 2730 ± 478 | Cc1cc(O[C@@H]2COC[C@H]2O)cc(C)c1-c1cccc(COc2ccc3c(c2)OC[C@H]3CC(=O)O)c1 [Example 30, 2-((S)-6-((4′-(((3R,4R)-4-hydroxytetrahydrofuran-3-yl)oxy)-2′,6′-dimethylbiphenyl-3-yl)methoxy)-2,3-dihydrobenzofuran-3-yl)acetic acid] | 29.59 | – |
